Experimental findings from patent US12371454B2, “Cyclic peptide compound having Kras inhibitory action” (priority 2019, dated 2025) are described below.

SMILES strings stand for the structures. Positions of bridges follow the written chain, without caps; N, C: chain ends. Non-standard residues stand in square brackets, D forms with d. Residues, ends and D or L forms follow the SMILES beside them. *: point of attachment. hPhe(3-Cl-4-CF3) = N[C@@H](CCc1ccc(C(F)(F)F)c(Cl)c1)C(=O)O; hPhe(3-F,4-CF3) = N[C@@H](CCc1ccc(C(F)(F)F)c(F)c1)C(=O)O; hPhe(4-CF3) = N[C@@H](CCc1ccc(C(F)(F)F)cc1)C(=O)O; NMePhe(4-Cl) = CN[C@@H](Cc1ccc(Cl)cc1)C(=O)O; NMeNle(6-CHF2) = CN[C@@H](CCCCC(F)F)C(=O)O; NMePhe(4-F) = CN[C@@H](Cc1ccc(F)cc1)C(=O)O; hPhe(4-Cl) = N[C@@H](CCc1ccc(Cl)cc1)C(=O)O; NMeAla(cPent) = CN[C@@H](CC1CCCC1)C(=O)O; NMeGly(cPent) = CN[C@H](C(=O)O)C1CCCC1; NMehPhe = CN[C@@H](CCc1ccccc1)C(=O)O; NMe4Pal = CN[C@@H](Cc1ccncc1)C(=O)O; NMeCha = CN[C@@H](CC1CCCCC1)C(=O)O; NMeChg = CN[C@H](C(=O)O)C1CCCCC1; NMeD = CN[C@@H](CC(=O)O)C(=O)O; NMeL = CN[C@@H](CC(C)C)C(=O)O; NMehSer = CN[C@@H](CCO)C(=O)O; NMeV = CN[C@H](C(=O)O)C(C)C; d(β3hA) = C[C@@H](N)CC(=O)O; N(iPr)Gly = CC(C)NCC(=O)O; NMeA = CN[C@@H](C)C(=O)O; Piperidide = C1CCN(*)CC1; Pyrrolidide = C1CCN(*)C1; Ac5c = NC1(C(=O)O)CCCC1; Aze = O=C(O)[C@@H]1CCN1; Aib = CC(C)(N)C(=O)O; Sar = CNCC(=O)O

In this assay the target is T1, Kras and SOS1 (biotin-tagged human Kras loaded with GDP, His-tagged human SOS1) (Homo sapiens, UniProt P01116, G12D).
T1 construct: made in house; host or cells: E. coli (stated for Kras only)
T1 sequence (P01116 1-188 isoform P01116-2 G12D): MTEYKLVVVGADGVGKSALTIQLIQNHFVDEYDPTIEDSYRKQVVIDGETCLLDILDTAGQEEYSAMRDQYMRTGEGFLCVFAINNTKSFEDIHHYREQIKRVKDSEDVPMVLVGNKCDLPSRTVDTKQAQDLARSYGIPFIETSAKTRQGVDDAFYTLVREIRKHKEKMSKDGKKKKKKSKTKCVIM
In words: Protein-protein interaction inhibition between Kras and SOS1 (KrasGl2D-SOS PPI) using AlphaScreen. The settings on record: AlphaScreen; biotin-tagged human Kras loaded with GDP, His-tagged human SOS1; read-out: KRAS G12D-SOS PPI IC50. It is filed as binding. The gist of the method:
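Energy transfer from nickel-chelate donor beads bound to His-SOS1 to streptavidin acceptor beads bound to biotin-Kras, expressed in E. coli and loaded with GDP after purification, was monitored. Donors were excited at 680 nm; singlet oxygen reaching acceptors gave emission read at 520-620 nm.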
In general terms: Alpha assays give light when donor and acceptor beads are brought close together.
A word on the IC50: it is the concentration needed to halve the response being measured. With `CC[C@H](C)[C@@H]1NC(=O)[C@H](C)N(C)C(=O)C[C@@H](C(=O)N2CCCC2)NC(=O)[C@H](CC(C)C)N(C)C(=O)[C@H](CCc2ccccc2)N(C)C(=O)[C@H](CC(C)C)NC(=O)[C@H](CCc2ccc(C(F)(F)F)cc2)NC(=O)CN(C)C(=O)[C@H](Cc2ccc(Cl)cc2)N(C)C(=O)CN(C)C(=O)CN(C)C1=O` [Compound 878] ([NMeA]I[Sar][Sar][NMePhe(4-Cl)][Sar][hPhe(4-CF3)]L[NMehPhe][NMeL]D-Pyrrolidide; lactam N-11), the concentration for half-maximal inhibition (IC50) is 320 nM.

Consider `CC[C@H](C)[C@@H]1NC(=O)[C@H](CC(C)C)N(C)C(=O)C[C@@H](C)NC(=O)[C@H](C(C)C)N(C)C(=O)C2(CCCC2)NC(=O)[C@@H]2CCCN2C(=O)[C@H](CCc2ccc(C(F)(F)F)c(Cl)c2)NC(=O)CN(C)C(=O)[C@H](CC2CCCCC2)N(C)C(=O)CN(C)C(=O)CN(C(C)C)C1=O` [Compound 305] (cyclo([Ac5c][NMeV][d(β3hA)][NMeL]I[N(iPr)Gly][Sar][NMeCha][Sar][hPhe(3-Cl-4-CF3)]P)), for which the IC50 amounted to 170 nM.

`CC[C@H](C)[C@@H]1NC(=O)[C@H](CC(C)C)N(C)C(=O)C[C@@H](C(=O)N2CCCCC2)N(C)C(=O)[C@H](C(C)C)N(C)C(=O)C2(CCCC2)NC(=O)[C@@H]2CCCN2C(=O)[C@H](CCc2ccc(Cl)cc2)NC(=O)CN(C)C(=O)[C@H](CC2CCCC2)N(C)C(=O)CN(C)C(=O)CN(C)C1=O` [Compound 167] ([NMeL]I[Sar][Sar][NMeAla(cPent)][Sar][hPhe(4-Cl)]P[Ac5c][NMeV][NMeD]-Piperidide; lactam N-11): the half-maximal inhibitory concentration (IC50) came to 58 nM.

For the compound `CC[C@H](C)[C@@H]1NC(=O)[C@H](CC(C)C)N(C)C(=O)C[C@@H](C)NC(=O)[C@H](CC(C)C)N(C)C(=O)C(C)(C)NC(=O)[C@H](CC(C)C)N(C)C(=O)[C@H](CCc2ccc(C(F)(F)F)c(F)c2)NC(=O)CN(C)C(=O)[C@H](CCCCC(F)F)N(C)C(=O)CN(C)C(=O)CN(C)C1=O` [Compound 1526] (cyclo([Aib][NMeL][d(β3hA)][NMeL]I[Sar][Sar][NMeNle(6-CHF2)][Sar][hPhe(3-F,4-CF3)][NMeL])), the concentration for half-maximal inhibition (IC50) turned out to be 100 nM.

As to `CC[C@H](C)[C@@H]1NC(=O)[C@H](CC(C)C)N(C)C(=O)C[C@@H](C(=O)N(C)C)N(C)C(=O)[C@H](C2CCCC2)N(C)C(=O)[C@H](C(C)C)NC(=O)[C@H](Cc2ccncc2)N(C)C(=O)[C@H](CCc2ccc(C(F)(F)F)c(Cl)c2)NC(=O)CN(C)C(=O)[C@H](CC2CCCCC2)N(C)C(=O)[C@@H]2CCN2C(=O)[C@H](C)N(C)C1=O` [Compound 1982] ([NMeL]I[NMeA][Aze][NMeCha][Sar][hPhe(3-Cl-4-CF3)][NMe4Pal]V[NMeGly(cPent)][NMeD]-NMe2; lactam N-11), the half-maximal inhibitory concentration (IC50) was 47 nM.

Take `CC[C@H](C)[C@@H]1NC(=O)[C@H](C)N(C)C(=O)C[C@@H](C(=O)N2CCCCC2)N(C)C(=O)[C@H](C(C)C)N(C)C(=O)C2(CCCC2)NC(=O)[C@H](Cc2ccc(F)cc2)N(C)C(=O)[C@H](CCc2ccc(C(F)(F)F)c(Cl)c2)NC(=O)CN(C)C(=O)[C@H](CC2CCCCC2)N(C)C(=O)CN(C)C(=O)CN(C)C1=O` [Compound 821] ([NMeA]I[Sar][Sar][NMeCha][Sar][hPhe(3-Cl-4-CF3)][NMePhe(4-F)][Ac5c][NMeV][NMeD]-Piperidide; lactam N-11): the IC50 came to 12 nM.

For the compound `CC[C@H](C)[C@@H]1NC(=O)[C@H](CC(C)C)N(C)C(=O)C[C@@H](C(=O)N2CCCCC2)N(C)C(=O)[C@H](C(C)C)N(C)C(=O)C2(CCCC2)NC(=O)[C@@H]2CCCN2C(=O)[C@H](CCc2ccc(C(F)(F)F)c(Cl)c2)NC(=O)CN(C)C(=O)[C@H](CC2CCCCC2)N(C)C(=O)[C@@H]2CCN2C(=O)[C@H](C2CCCCC2)N(C)C1=O` [Compound 1600] ([NMeL]I[NMeChg][Aze][NMeCha][Sar][hPhe(3-Cl-4-CF3)]P[Ac5c][NMeV][NMeD]-Piperidide; lactam N-11), the IC50 came to 310 nM.

`CC[C@H](C)[C@@H]1NC(=O)[C@H](CC(C)C)N(C)C(=O)C[C@@H](C(=O)N2CCCCC2)N(C)C(=O)[C@H](C(C)C)N(C)C(=O)C2(CCCC2)NC(=O)[C@@H]2CCCN2C(=O)[C@H](CCc2ccc(Cl)cc2)NC(=O)CN(C)C(=O)[C@H](CC2CCCCC2)N(C)C(=O)[C@@H]2CCCN2C(=O)CN(C)C1=O` [Compound 953] ([NMeL]I[Sar]P[NMeCha][Sar][hPhe(4-Cl)]P[Ac5c][NMeV][NMeD]-Piperidide; lactam N-11): the IC50 amounted to 180 nM.

In the case of `CC[C@H](C)[C@@H]1NC(=O)[C@H](CC(C)C)N(C)C(=O)C[C@@H](C(=O)N2CCCCC2)N(C)C(=O)[C@H](C2CCCCC2)N(C)C(=O)C2(CCCC2)NC(=O)[C@@H]2CCCN2C(=O)[C@H](CCc2ccc(C(F)(F)F)c(Cl)c2)NC(=O)CN(C)C(=O)[C@H](CCOC)N(C)C(=O)CN(C)C(=O)CN(C)C1=O` [Compound 159] ([NMeL]I[Sar][Sar][NMehSer](Me)[Sar][hPhe(3-Cl-4-CF3)]P[Ac5c][NMeChg][NMeD]-Piperidide; lactam N-11), the IC50 was 2.4 nM.
